Measurements: patent US20080069857A1, “Compositions And Methods For Inhibiting Adhesions” (priority 2006, published 2008)
In brackets after ≈: the same amount, converted by molar mass.

Assays:
[1] = system: Human mesothelial cells (ATCC, CRL-9444)
Procedure: In vitro cell viability assay: Human mesothelial cells (ATCC, CRL-9444) were cultured in Medium 199, containing Earle's salts, L-glutamine, and 2.2 g/L sodium bicarbonate and supplemented with 3.3 nM epidermal growth factor, 400 nM hydrocortisone, 870 nM insulin, 20 mM HEPES, and 10% fetal bovine serum. Cells from passage 5 through 25 were used for the following studies. Mesothelial cells were seeded into 24-well plates at a density of 50,000 cells per well in 1 ml of culture medium. […] After varying periods of incubation in the presence of the hydrogels, cell viability was assessed with an MTT assay kit (Promega CellTiter 96 Non-Radioactive Cell Proliferation Assay).
Cell proliferation assay. […] After varying periods of incubation in the presence of the hydrogels, cell viability was assessed with an MTT assay kit (Promega CellTiter 96 Non-Radioactive Cell Proliferation Assay).
Mesothelial cells were grown and maintained in a complete growth medium (GIBCO: Medium199 with Earle's BSS, 0.75 mM L-glutamine and 1.25 g/L sodium bicarbonate supplemented with 3.3 nM epidermal growth factor, 400 nM hydrocortisone, 870 nM insulin, 20 mM HEPES and 10% fetal bovine serum) at 37° C. in 5% CO2. […] The purple formazan produced by active mitochondria was solubilized using 1 ml detergent solution and then read at 570 nm by plate reader (Molecular Devices: SpectraMax 384, Union City, Calif.). […]

[2] = Budesonide solubility in saline; format: physicochemical; conditions: saline or isotonic, thermodynamic from solid, 37° C., read-out: saturation solubility in saline
Procedure: The maximum solubility of budesonide in saline was determined as described (Gennaro A R, editor. Remington: The Science and Practice of Pharmacy. 20th ed. Philadelphia, Pa.: Lippincott Williams & Wilkins, 2000, which is incorporated herein by reference). First, increasing amounts of budesonide were mixed with saline to provide budesonide concentration in the system from 25 mg/ml to 0.002 mg/ml. The mixtures were constantly stirred at 37° C. for 24 hours, and then centrifuged at 12,000 rpm for 5 minutes to separate the solution phase from the solid phase. The budesonide concentrations in the solution phase were measured by High Performance Liquid Chromatography (HPLC). The saturation solubility of budesonide in saline was determined by extrapolating the line segment, of which slope was 0, to y-axis.
In a separate experiment, budesonide-saline 0.13 mg/ml was prepared as described above, divided into 1 ml aliquots, and incubated at 37° C. with constant stirring. At timed intervals, an aliquot of budesonide-saline was taken and centrifuged at 12,000 rpm for 5 minutes to separate 0.8 ml of supernatant for HPLC analysis. The remaining 0.2 ml, potentially containing precipitated budesonide, was dissolved in 0.8 ml acetonitrile and analyzed with HPLC. […]

[3] = United States Pharmacopoeia classification "practically insoluble"; cited from earlier work
[4] = system: IL-6 production by primary mouse macrophages; test: IL-6 production by LPS-challenged macrophages; format: cell-based, mouse (C57/B16); conditions: macrophages stimulated with LPS
Procedure: (§1) C57/B16 mice were purchased from Taconic (Hudson, N.Y.). 2 ml of 3% (w/v) sterile thioglycollate solution (DIFCO Laboratories, Detroit, Mich.) was injected into the peritoneal cavity. Four days after injection, the mice were euthanized by CO2, and 6 ml of ice-cold PBS buffer containing 5 mM EDTA was injected. After agitating the peritoneum with forceps, a macrophage-containing solution was aspirated. The cells were placed immediately into iced DMEM on ice prior to washing, counting and plating. Approximately 10^7 cells per mouse were obtained.
(§2) Non-adherent cells were removed by washing with 200 μl/well PBS buffer. Then 100 μl of DMEM with 10% FBS and 100 μl of medium pre-incunated with hydrogels (Sec. 2.2.9), or known concentrations of dexamethasone, were added to the adherent macrophages in each well. After incubation for 24 h at 37° C. in 5% CO2, 25 μl of 900 ng/ml of LPS (Sigma, St. Louis, Mo.; Catalog #L-4391) was added to each well to a final concentration of 100 ng/ml. After incubation for a further 16 h, the media were collected and stored at −80° C. until analyzed. The concentration of TNF-α, IL-6, and dexamethasone in those media were measured by ELISA (enzyme-linked immunosorbent assay). The ELISA kits for TNF-α, IL-6, and dexamethasone were purchased from R&D Systems (DuoSet, Cat DY406), BioLegend (Mouse IL-6 ELISA MAX™ Set (Deluxe)), and Neogen Corporation, respectively.

[5] = system: TNF-α production by primary mouse macrophages; test: TNF-α production by LPS-challenged macrophages; format: cell-based, mouse (C57/B16); conditions: macrophages stimulated with LPS
Procedure: as §1, §2

peritoneal adhesions = conditions: 1 week after second laparotomy
Procedure: Repeated laparotomy model. Female albino rabbits (Oryctolagus cuniculus; New Zealand White) (3±0.5 kg) were used. The first laparotomy and post-operation care were performed as described above. A 2nd laparotomy was performed after 1 week. On examination prior to the 2nd laparotomy, animals were excluded from the 2nd laparotomy for the following: (i) loss of more than 15% of body weight since the 1st laparotomy; (ii) poor feeding. On laparotomy, adhesions were scored as previously then lysed (cut). The previously excised abdominal wall was re-abraded 50 times unidirectionally, and the cecum surface between 6-12th haustra was re-abraded 150-200 times bidirectionally using a sterile brush until a bleeding bed was obtained.
Thirty animals were assigned randomly to experimental groups and test materials were applied on the injured areas. The operator was blinded as to the nature of the materials. HA-ADH and HA-CHO were sterilized by germicidal UV illumination for 2 hours and dissolved in 5 ml sterile saline, respectively. Ten ml of gel were applied on the injured sites with a dual valve applicator as previously. As controls, a group of animals received no treatment, and another group received 10 ml saline.
After treatment of the injured areas, the peritoneum and abdominal wall were closed with 2-0 Ethilon and 3-0 Dexon, respectively. The skin was closed with 2-0 Ethilon. Animals were allowed to awaken and had food and water ad libitum. Buprenorphine 0.02-0.03 mg/kg was administered sc 8-12 hours interval until 48 hours post-surgery. The animals were sacrificed 1 week after the second laparotomy by intravenous injection of sodium pentobarbital. Adhesions were scored in two ways. (i) Quality of adhesions was scored as follows: Adhesions were scored using a modification of a reported method (Burns J W, Skinner K, Colt J, Sheidlin A, Bronson R, Yaacobi Y, et al. Prevention of tissue injury and postsurgical adhesions by precoating tissues with hyaluronic acid solutions. Journal of Surgical Research 1995;59:644-652, which is incorporated herein by reference). Score 0=no adhesion, score 1=tissue adherence that would separate with gravity, score 2=tissue adherence separable by blunt dissection, score 3=adhesion requiring sharp dissection. If there were multiple adhesions of different scores, we chose the higher one as a representative score. (ii) Area of score 2 or 3 adhesions was measured for quantitative evaluation of the adhesions. The location of adhesions (whether they include suture sites or not; location and number of cecal haustra involved in the adhesion) and weight changes were recorded. Tissues recovered from the necropsy were fixed in 10% formalin, embedded in paraffin, sectioned, and stained with hematoxylin and eosin for histological examination.
Peritoneal adhesions were induced in female albino rabbits (Oryctolagus cuniculus; New Zealand White) (3±0.5 kg) through repeated laparotomies as described in our previous study [tPA]. Briefly, cecum abrasion and excision of abdominal wall were performed to induce de novo adhesions (Yeo et al. In situ cross-linkable hyaluronic acid hydrogels prevent post-operative abdominal adhesions in a rabbit model. Biomaterials 2006;27:4698-4705, which is incorporated herein by reference). A second laparotomy was performed after 1 week to cut the adhesions and introduce additional injuries to the same locations as those injured in the first laparotomy. […]

## hyaluronic acid [HA, reference compound]
[1]
  effect of polymers on mesothelial cell viability (MTT): small reductions in cell viability

## HA-adipic dihydrazide [HA-ADH]
[1]
  effect of polymers on mesothelial cell viability (MTT): small reductions in cell viability

## CCCC1O[C@@H]2C[C@H]3[C@@H]4CCC5=CC(=O)C=C[C@]5(C)[C@H]4[C@@H](O)C[C@]3(C)[C@]2(C(=O)CO)O1 (some centres unmarked) [Budesonide]
[2]
  solubility at 24 h: 27 µg/mL (≈ 62.7 µM)
[3]
  solubility in water: < 0.1 mg/mL

## C[C@@H]1C[C@H]2[C@@H]3CCC4=CC(=O)C=C[C@]4(C)[C@@]3(F)[C@@H](O)C[C@]2(C)[C@@]1(O)C(=O)CO [Dexamethasone]
[4]
  concentrations with no effect on production of IL-6: lower than 10^−9 M
[5]
  concentrations with no effect on production of TNF-α: lower than 10^−9 M

## tPA: bolus of tPA solution (2.2 mg Activase) in the absence of HAX
Peritoneal adhesions; 10 ml applied on injured sites
  Qualitative (score) % frequency, score 0: 25%
  Qualitative (score) % frequency, score 1: 0%
  Qualitative (score) % frequency, score 2: 0%
  Qualitative (score) % frequency, score 3: 75%
Peritoneal adhesions; area of score 2 or 3 adhesions
  Quantitative (adhesion area), median: 2.4 cm^2
